The values below come from patent US11912705B2, “Cathinone derivatives, pharmaceutical formulations, and methods” (The Corporation of Mercer University, priority 2020, dated 2024).

As usually defined, the Ki is the equilibrium dissociation constant of an inhibitor or competing ligand from its target.

Experiment [1] has as its target T1, human M2R (Homo sapiens, UniProt P08172).
T1 construct: host or cells: HEK293 (CRL-1573, ATCC), transient
T1 sequence (P08172 1-466): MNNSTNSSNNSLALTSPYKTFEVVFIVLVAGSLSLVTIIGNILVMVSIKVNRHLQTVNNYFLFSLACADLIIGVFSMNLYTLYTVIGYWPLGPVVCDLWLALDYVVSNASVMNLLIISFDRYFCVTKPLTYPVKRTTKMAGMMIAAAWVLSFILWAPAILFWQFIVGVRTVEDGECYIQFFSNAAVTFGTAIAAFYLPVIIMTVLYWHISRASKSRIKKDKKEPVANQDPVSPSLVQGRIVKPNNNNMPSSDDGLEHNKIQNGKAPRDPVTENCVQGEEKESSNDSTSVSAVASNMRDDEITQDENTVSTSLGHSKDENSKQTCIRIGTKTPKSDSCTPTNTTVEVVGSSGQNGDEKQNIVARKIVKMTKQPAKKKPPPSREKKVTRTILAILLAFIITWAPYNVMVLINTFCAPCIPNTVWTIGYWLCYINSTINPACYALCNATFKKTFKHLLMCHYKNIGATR
Briefly: [3H]Scopolamine radioligand competition binding at M2R. The note with it: for M2 Selectivity: range of Ki ratios of M1, M3, M4, M5 versus M2. The procedure: (§1) Radioligand Competition Binding: Radioligand competition binding assays were conducted using membranes collected from transiently transfected HEK293 cells (P<20 from a procured stock, CRL-1573, ATCC, Manassas, Va., USA) as previously described (Chen, Y., et al. Drug Test Anal 11, 990-998). Briefly, cells ˜90% confluent in 10 cm plates were transfected with 5 μg human M1R, M2R, M3R, M4R or […] cDNA (cDNA resource center, Bloomsburg, Pa., USA) using a lipid-based method (LipoD293 reagent, SignaGen Laboratories, Rockville, Md., USA). Membranes were collected by centrifugation about 48 hours later and stored at −80° C. until used. […] After a 90-minute incubation at room temperature on a shaker, contents from the plates were rapidly filtered through GF/B fiberglass filter mats, pre-soaked with ice cold 50 mM Tris buffer (pH 7.4), using a Microbeta Filtermat-96 cell harvester (Perkin Elmer, Waltham, Mass., USA). Approximately 200 mL of ice cold, 50 mM Tris buffer was then vacuumed through filter mats to wash away unbound radioligand. Filter mats were dried on a hot plate and soaked in Betaplate (Perkin Elmer, Waltham, Mass., USA) scintillation fluid in plastic bags. Bags were sealed and placed in cassettes. Radioactivity was measured in a Microbeta2 Microplate Counter (Perkin Elmer, Waltham, Mass., USA), and counts per minute corresponding to each well on the plates were recorded. For full dose-response competition binding assays, increasing half-log unit concentrations of five unsubstituted PSCs were tested at M2Rs and M1Rs, with the same procedures described above.
(§2) Curve Fitting and Statistical Analyses: All data were analyzed by GraphPad 8.3.0 (San Diego, Calif., USA). Ki values were determined from data fit to both one- and two-site models. […] EC50 and IC50 values from functional assays were determined from data fit to the log(agonist) vs. response (three parameters) or log(inhibitor) vs. response (three parameters) model, respectively. Kb values were calculated from IC50 values using the Cheng-Prusoff equation with modification (see, e.g., Leff, P., and Dougall, I. G. (1993) Trends Pharmacol Sci 14, 110-112): Kb=IC50/((2+([A]/[A50])nH)1/nH−1)
Background: In a radioligand displacement assay an active substance lowers the binding of a labelled ligand.

In another experiment the target is T2, human M4R (Homo sapiens, UniProt P08173).
T2 construct: host or cells: HEK293 (CRL-1573, ATCC), transient
T2 sequence (P08173 1-479): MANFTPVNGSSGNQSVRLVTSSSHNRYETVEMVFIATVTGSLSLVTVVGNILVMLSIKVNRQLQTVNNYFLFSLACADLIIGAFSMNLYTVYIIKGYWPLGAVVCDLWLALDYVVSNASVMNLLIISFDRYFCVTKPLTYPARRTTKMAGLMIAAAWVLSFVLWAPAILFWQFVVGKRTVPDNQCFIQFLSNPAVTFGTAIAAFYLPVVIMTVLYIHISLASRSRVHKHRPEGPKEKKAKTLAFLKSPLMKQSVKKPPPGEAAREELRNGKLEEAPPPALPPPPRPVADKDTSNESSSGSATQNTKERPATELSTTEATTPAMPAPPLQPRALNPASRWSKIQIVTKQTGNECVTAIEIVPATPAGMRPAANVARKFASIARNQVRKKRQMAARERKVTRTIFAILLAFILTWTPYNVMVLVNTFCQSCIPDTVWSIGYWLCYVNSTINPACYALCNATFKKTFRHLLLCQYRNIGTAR
In words: [3H]Scopolamine radioligand competition binding at M4R. The procedure: as §1, §2

Experiment [2] deals with T1, human M2R. Briefly: M2R cAMP signaling (forskolin-stimulated cAMP, oxotremorine agonist). The format is cell-based. As to the method: The M2R coupled to Gαi/o proteins, and its agonism functioned to decrease formation of the intracellular second messenger cyclic-adenosine-monophosphate (cAMP). […] In the presence of oxotremorine, an antagonist of the M2R would be expected to reverse the effects of the agonist, thereby increasing cAMP formation.
M2R cAMP Signaling: cAMP measurements were performed with the cAMP Hunter eXpress® CHRM2 CHO-K1 GPCR assay (Eurofins DiscoveRx, Fremont, Calif., USA) according to the manufacturer's protocol. Briefly, in the provided 96-well tissue culture-treated plate, 100 μL of human M2R expressing CHO-K1 cells were seeded in cell plating reagent and incubated (37° C., 5% CO2, 95% humidity) overnight. Cell plating reagent was replaced with 30 μL of cell assay buffer the next day. For agonist stimulation, cells were treated with increasing half-log unit concentrations of oxotremorine in the presence of 10 μM forskolin, followed by incubation for 30 minutes. A cAMP antibody, cAMP working detection solution and enzyme acceptor solution were then added according to the protocol, and the final chemiluminescent signals were detected by a Mithras LB 940 microplate reader (Berthold Technologies, Bad Wildbad, Germany). Antagonist tests were run by pretreating cells with increasing half-log unit concentrations of α-PHP, followed by incubation for one hour. Cells were then treated with EC80 concentration of oxotremorine (130 nM) and 10 μM forskolin. The same incubation and detection procedure used for agonist assays was used for the remaining steps.
as §2

[3] abbreviates: Affinities, Ki ± SEM, nM M2, human muscarinic M2 (N = 9), [3H]-N-methylscopolamine.

“And” between values parts separate entries of the source, which are not always exact repeats. Identical values can stand only once.

Take `CCCCC(C(=O)c1ccccc1)N1CCCCC1` (stereo not shown) [Compound (1), 1-phenyl-2-(piperidin-1-yl)hexan-1-one]: the inhibition constant Ki on human M2R [1] (setting [3]) is 70 nM and 69.9 nM; on human M4R, 1240 nM. In addition, the “M2 Selectivity” value on human M2R [1] is given as 9.72-17.76. Moreover, the Kb at human M2R [2] was 126 nM.

Turning to `CCCCC(C(=O)c1ccccc1)N1CCCCCC1` (stereo not shown) [Compound (2), 2-(azepan-1-yl)-1-phenylhexan-1-one], the Ki on human M2R [1] (setting [3]) is 90 nM and 89.5 nM; on human M4R it was 997 nM. The “M2 Selectivity” value on human M2R [1] is recorded as 11.04-16.63. Also, at human M2R [2], the Kb was 158 nM.

For the compound `CCCCC(C(=O)c1ccccc1)N1CCCC1` (stereo not drawn) [α-PHP, 1-phenyl-2-(pyrrolidin-1-yl)hexan-1-one], on human M2R [1], the “fold increase in M2R affinity compared to α-PPP” value is reported as 302 fold. Besides, the Ki on human M2R [1] (Ki at M2Rs, full dose-response [3H]Scopolamine competition binding) was 251 nM; on human M2R [1] (estimated pKi at M2R, estimate from 1 and 10 μM concentrations (N = 2), N.C. = <5% displacement of radioligand at 10 μM) it was 468 nM; on human M4R, 1950 nM. The Kb at human M2R [2] came to 120 nM.
